Numbers after ± are expanded uncertainties.
Settings: 313.15 K; Liquid; Closed cell (Static) method

| SMILES | vapor or sublimation pressure [kPa] |
| --- | --- |
| C=CCCCC [hex-1-ene] | 44.98 ± 0.2 |
| CC(C)CC(C)(C)C [2,2,4-trimethylpentane] | 12.95 ± 0.031 |
| CCC(C)O (stereo not drawn) [butan-2-ol] | 6.045 ± 0.02 |

Source: the NIST ThermoML archive (doi:10.1016/j.fluid.2014.02.018)
